Data published in patent publication US8859535B2, “Hydroxy substituted isoquinolinone derivatives” (Novartis AG, priority 2011, dated 2014).

How the values were obtained:
[1] = target: T1, human MDM4 protein (amino acids 2-185) (Homo sapiens, UniProt O15151); assay: p53-MDM4 TR-FRET assay (p53-MDM4 Assay 1); type: binding; details: 2.5 nM MDM4-biotinylated, 10 nM Cy5-p53 peptide; read-out: IC50 (μM) of p53-Hdm4 inhibition (TR-FRET) Assay 1
T1 construct: human MDM4 protein (amino acids 2-185); made in house
T1 sequence (O15151 2-185): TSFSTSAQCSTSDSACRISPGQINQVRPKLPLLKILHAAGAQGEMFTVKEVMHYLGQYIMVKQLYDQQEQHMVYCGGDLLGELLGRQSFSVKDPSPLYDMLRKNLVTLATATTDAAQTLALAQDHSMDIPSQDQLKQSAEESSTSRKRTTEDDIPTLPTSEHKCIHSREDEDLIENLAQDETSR
Description: (§1) Time Resolved Fluorescence Energy Transfer (TR-FRET) Assay
(§2) The inhibition of p53-MDM2 and p53-MDM4 interactions is measured by time resolved fluorescence energy transfer (TR-FRET). Fluorescence energy transfer (or Foerster resonance energy transfer) describes an energy transfer between donor and acceptor fluorescent molecules. For this assay, human MDM2 protein (amino acids 2-188) and human MDM4 protein (amino acids 2-185), tagged with a C-terminal biotin moiety, are used in combination with a Europium labeled streptavidin (Perkin Elmer, Inc., Waltham, Mass., USA) serving as the donor fluorophore. The p53 derived, Cy5 labeled peptide Cy5-TFSDLWKLL (p53 aa18-26) is the energy acceptor. Upon excitation of the donor molecule at 340 nm, binding interaction between MDM2 or MDM4 and the p53 peptide induces energy transfer and enhanced response at the acceptor emission wavelength at 665 nm. Disruption of the formation of the p53-MDM2 or p53-MDM4 complex due to an inhibitor molecule binding to the p53 binding site of MDM2 or MDM4 results in increased donor emission at 620 nm. The ratiometric FRET assay readout is calculated from the raw data of the two distinct fluorescence signals measured in time resolved mode (fluorescence 665 nm/fluorescence 620 nm×1000).
(§3) After addition of 1.25 nM MDM2-biotinylated or 2.5 nM MDM4-biotinylated (internal preparations), and 0.625 nM Europium labeled streptavidin (Perkin Elmer), the solution is pre-incubated for 15 minutes at room temperature, then 10 nM Cy5-p53 peptide (internal preparation) is added before an incubation at room temperature for 15 minutes prior to reading the plate. For measurement of samples, a Victor II microplate reader (Perkin Elmer) is used with the following settings: Excitation 340 nm, Emission Donor 620 nm and Emission Acceptor 665 nm. IC50 values are calculated by curve fitting using XLfit. If not specified, reagents are purchased from Sigma-Aldrich Chemie GmBH, Buchs, Switzerland.
(§4) This assay was used to evaluate compounds displaying inhibition of p53-MDM2 interaction and p53-MDM4 interaction at IC50s of 0.005 to 50 μM (p53-MDM2 Assay 1 and p53-MDM4 Assay 1, respectively). For selected compounds displaying IC50s between […] on MDM2, a slightly modified assay is used with the following adaptations: 0.1 nM MDM2, 0.1 nM Europium labeled streptavidin and Tecan genios Pro is used as a microplate reader for the fluorescence measurements (p53-MDM2 Assay 2).

[2] = target: T2, human MDM2 protein (amino acids 2-188) (Homo sapiens, UniProt Q00987); assay: p53-MDM2 TR-FRET assay (p53-MDM2 Assay 1); type: binding; details: 1.25 nM MDM2-biotinylated, 10 nM Cy5-p53 peptide; read-out: IC50 (μM) of p53-Hdm2 inhibition (TR-FRET) Assay 1
T2 construct: human MDM2 protein (amino acids 2-188); made in house
Description: as §1, §2, §3, §4

T2 sequence (Q00987 2-188): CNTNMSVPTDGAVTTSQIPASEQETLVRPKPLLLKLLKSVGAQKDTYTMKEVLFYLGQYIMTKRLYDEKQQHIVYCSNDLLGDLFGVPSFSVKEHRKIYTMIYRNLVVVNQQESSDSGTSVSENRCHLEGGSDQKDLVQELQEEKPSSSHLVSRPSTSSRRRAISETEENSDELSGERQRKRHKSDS

Compound	IC50 [1] [µM]	IC50 [2] [µM]
COc1cc2c(cc1OC(C)C)[C@H](c1ccc(Cl)cc1)N(c1ccc(C(C)(O)c3ccncc3)cc1)C(=O)C2 (stereo partly drawn) [Example 17, (S)-1-(4-Chloro-phenyl)-2-[4-(1-hydroxy-1-pyridin-4-yl-ethyl)-phenyl]-7-isopropoxy-6-methoxy-1,4-dihydro-2H-isoquinolin-3-one]	7.73	0.0068
COc1cc2c(cc1OC(C)C)[C@H](c1ccc(Cl)cc1)N(c1ccc(C(C)(O)c3ccccn3)cc1)C(=O)C2 (stereo partly drawn) [Example 18, (S)-1-(4-Chloro-phenyl)-2-[4-(1-hydroxy-1-pyridin-2-yl-ethyl)-phenyl]-7-isopropoxy-6-methoxy-1,4-dihydro-2H-isoquinolin-3-one]	37.2	0.0368
COc1cc2c(cc1OC(C)C)[C@H](c1ccc(Cl)cc1)N(c1ccc(C(C)(O)C3CCN(C(C)C)CC3)cc1)C(=O)C2 (stereo partly drawn) [Example 78, (S)-1-(4-Chloro-phenyl)-2-{4-[1-hydroxy-1-(1-isopropyl-piperidin-4-yl)-ethyl]-phenyl}-7-isopropoxy-6-methoxy-1,4-dihydro-2H-isoquinolin-3-one]	3.18	0.0043
COc1cc2c(cc1OC(C)C)[C@H](c1ccc(Cl)cc1)N(c1ccc(C(O)C3CCCCC3)cc1)C(=O)C2 (stereo partly drawn) [Example 8, (S)-1-(4-Chloro-phenyl)-2-[4-(cyclohexyl-hydroxy-methyl)-phenyl]-7-isopropoxy-6-methoxy-1,4-dihydro-2H-isoquinolin-3-one]	61.3	0.0316
COc1cccc(C(C)(O)c2ccc(N3C(=O)Cc4cc(OC)c(OC(C)C)cc4[C@@H]3c3ccc(Cl)cc3)cc2)c1 (stereo partly drawn) [Example 1, (S)-1-(4-Chloro-phenyl)-2-{4-[1-hydroxy-1-(3-methoxy-phenyl)-ethyl]-phenyl}-7-isopropoxy-6-methoxy-1,4-dihydro-2H-isoquinolin-3-one]	70.8	0.0432
COc1cc(OC)cc(C(C)(O)c2ccc(N3C(=O)Cc4cc(OC)c(OC(C)C)cc4[C@@H]3c3ccc(Cl)cc3)cc2)c1 (stereo partly drawn) [Example 22, (S)-1-(4-Chloro-phenyl)-2-{4-[1-(3,5-dimethoxy-phenyl)-1-hydroxy-ethyl]-phenyl}-7-isopropoxy-6-methoxy-1,4-dihydro-2H-isoquinolin-3-one]	21.7	0.0225
COc1cc2c(cc1OC(C)C)[C@H](c1ccc(Cl)cc1)N(c1ccc(C(C)(O)C3CCNC(=O)C3)cc1)C(=O)C2 (stereo partly drawn) [Example 49, (S)-1-(4-Chloro-phenyl)-2-{4-[1-hydroxy-1-(2-oxo-piperidin-4-yl)-ethyl]-phenyl}-7-isopropoxy-6-methoxy-1,4-dihydro-2H-isoquinolin-3-one]	8.07	0.011
COc1ccc(C(C)(O)c2ccc(N3C(=O)Cc4cc(OC)c(OC(C)C)cc4[C@@H]3c3ccc(Cl)cc3)cc2)cc1 (stereo partly drawn) [Example 5, (S)-1-(4-Chloro-phenyl)-2-{4-[1-hydroxy-1-(4-methoxy-phenyl)-ethyl]-phenyl}-7-isopropoxy-6-methoxy-1,4-dihydro-2H-isoquinolin-3-one]	10.5	0.0082
COc1cc2c(cc1OC(C)C)[C@H](c1ccc(Cl)cc1)N(c1ccc(C(C)(O)C3CN(C(C)=O)C3)cc1)C(=O)C2 (stereo partly drawn) [Example 66, (S)-2-{4-[1-(1-Acetyl-azetidin-3-yl)-1-hydroxy-ethyl]-phenyl}-1-(4-chloro-phenyl)-7-isopropoxy-6-methoxy-1,4-dihydro-2H-isoquinolin-3-one]	13.5	0.0146
COc1cc2c(cc1OC(C)C)[C@H](c1ccc(Cl)cc1)N(c1ccc(C(C)(O)C3CN(S(C)(=O)=O)C3)cc1)C(=O)C2 (stereo partly drawn) [Example 73, (S)-1-(4-Chloro-phenyl)-2-{4-[1-hydroxy-1-(1-methanesulfonyl-azetidin-3-yl)-ethyl]-phenyl}-7-isopropoxy-6-methoxy-1,4-dihydro-2H-isoquinolin-3-one]	18.9	0.0179
COc1cc2c(cc1OC(C)C)[C@H](c1ccc(Cl)cc1)N(c1ccc(C(O)C3CCOCC3)cc1)C(=O)C2 (stereo partly drawn) [Example 40, (S)-1-(4-Chloro-phenyl)-2-{4-[hydroxy-(tetrahydro-pyran-4-yl)-methyl]-phenyl}-7-isopropoxy-6-methoxy-1,4-dihydro-2H-isoquinolin-3-one]	31.6	0.0328
COc1cc2c(cc1OC(C)C)[C@H](c1ccc(Cl)cc1)N(c1ccc(C(C)(O)C3CC4CCC(C3)N4C(C)C)cc1)C(=O)C2 (stereo partly drawn) [Example 110, (S)-1-(4-Chloro-phenyl)-2-{4-[1-hydroxy-1-(8-isopropyl-8-aza-bicyclo[3.2.1]oct-3-yl)-ethyl]-phenyl}-7-isopropoxy-6-methoxy-1,4-dihydro-2H-isoquinolin-3-one]	4.23	0.0049
COc1cc2c(cc1OC(C)C)[C@H](c1ccc(Cl)cc1)N(c1ccc(C(C)(O)C3CCN(CCC(F)(F)F)CC3)cc1)C(=O)C2 (stereo partly shown) [Example 86]	6.45	0.0058

The remaining lines, values ahead:

IC50 [1] [µM]	IC50 [2] [µM]	Compound
40.5	0.0154	COc1cc2c(cc1OC(C)C)[C@H](c1ccc(Cl)cc1)N(c1ccc(C(C)(O)C3CCCCC3)cc1)C(=O)C2 (stereo partly drawn) [Example 63, (S)-1-(4-Chloro-phenyl)-2-[4-(1-cyclohexyl-1-hydroxy-ethyl)-phenyl]-7-isopropoxy-6-methoxy-1,4-dihydro-2H-isoquinolin-3-one]
14.9	0.0091	COc1cc2c(cc1OC(C)C)[C@H](c1ccc(Cl)cc1)N(c1ccc(C(C)(O)C3CCN(C(=O)OC(C)(C)C)CC3)cc1)C(=O)C2 (stereo partly drawn) [Example 42, 4-(1-{4-[(S)-1-(4-Chloro-phenyl)-7-isopropoxy-6-methoxy-3-oxo-3,4-dihydro-1H-isoquinolin-2-yl]-phenyl}-1-hydroxy-ethyl)-piperidine-1-carboxylic acid tert-butyl ester]
1.48	0.0025	COc1cc2c(cc1OC(C)C)[C@H](c1ccc(Cl)cc1)N(c1ccc(C(C)(O)C3CCOCC3)c(F)c1)C(=O)C2 (mixture of isomers) [Example 35, (S)-1-(4-Chloro-phenyl)-2-{3-fluoro-4-[1-hydroxy-1-(tetrahydro-pyran-4-yl)-ethyl]-phenyl}-7-isopropoxy-6-methoxy-1,4-dihydro-2H-isoquinolin-3-one]
6.03	0.0051	COc1cc2c(cc1OC(C)C)[C@H](c1ccc(Cl)cc1)N(c1ccc(C(C)(O)C3CCOCC3)cc1OC)C(=O)C2 (stereo partly drawn) [Example 36, (S)-1-(4-Chloro-phenyl)-2-{4-[1-hydroxy-1-(tetrahydro-pyran-4-yl)-ethyl]-2-methoxy-phenyl}-7-isopropoxy-6-methoxy-1,4-dihydro-2H-isoquinolin-3-one]
8.05	0.0079	COc1cc2c(cc1OC(C)C)[C@H](c1ccc(Cl)cc1)N(c1ccc(C(C)(O)C3CC4CCC(C3)S4(=O)=O)cc1)C(=O)C2 (mixture of isomers) [Example 172, (S)-1-(4-Chloro-phenyl)-2-{4-[1-(8,8-dioxo-8-thia-bicyclo[3.2.1]oct-3-yl)-1-hydroxy-ethyl]-phenyl}-7-isopropoxy-6-methoxy-1,4-dihydro-2H-isoquinolin-3-one]
61.8	0.0343	COc1cc2c(cc1OC(C)C)[C@H](c1ccc(Cl)cc1)N(c1ccc(C(C)(O)c3ccc(F)cc3)cc1)C(=O)C2 (stereo partly drawn) [Example 6, (S)-1-(4-Chloro-phenyl)-2-{4-[1-(4-fluoro-phenyl)-1-hydroxy-ethyl]-phenyl}-7-isopropoxy-6-methoxy-1,4-dihydro-2H-isoquinolin-3-one]
51.6	0.0555	COc1cc2c(cc1OC(C)C)[C@H](c1ccc(Cl)cc1)N(c1ccc(C(C)(C)O)cc1)C(=O)C2 [Example 11, (S)-1-(4-Chloro-phenyl)-2-[4-(1-hydroxy-1-methyl-ethyl)-phenyl]-7-isopropoxy-6-methoxy-1,4-dihydro-2H-isoquinolin-3-one]
